Here are results for six compounds from paper PMC6152040, “Isolation and Characterization of Aphidicolin Derivatives from Tolypocladium inflatum” (Molecules : A Journal of Synthetic Chemistry and Natural …, 2017).

Holding throughout (assay type): cell-based
Test [1] has as its system A375 malignant melanoma cells. Briefly: MTS cytotoxicity assay, A375. The settings on record: Homo sapiens, A-375, MTS method, 72 h incubation. How it is done:
(§1) Compounds 1, 4–8 were tested for the cytotoxicities against A549, CNE1-MP1, A375, and MCF-7 human cancer cell lines using MTS method.
(§2) Cytotoxic activity was tested against four human cancer cell lines (A549, CNE1-MP1, A375, and MCF-7) using the MTS method. For the MTS assay, the CellTiter 96® AQueous One Solution Reagent (Promega, Madison, WI, USA) was used following the manufacturer’s instruction. In a 96-well plate, each well was plated with 2–5 × 10^3 cells (It depends on the cell multiplication rate). […] The plate was incubated for 72 h at 37 °C in a humidified, 5% CO2 atmosphere. Proliferation assessed by adding 20 μL of MTS to each well in dark followed by a 90 min incubation at 37 °C. The assay plate was read at 490 nm using a microplate reader (Bio-Rad, Hercules, CA, USA). The assay was run in triplicate.
A general note: Tetrazolium assays rely on reduction of a dye to a coloured formazan, in cell work by metabolically active cells.

Test [2] has as its system HaCaT (human keratinocyte) cells. Kind of test: MTS cytotoxicity assay, HaCaT negative control cells. The following applies: MTS method, 72 h incubation.
Test [3] deals with A549 lung adenocarcinoma cells. Kind of test: MTS cytotoxicity assay, A549. The following applies: Homo sapiens, MTS method, 72 h incubation. The method, then:
as §1, §2

Test [4] has as its system CNE1-LMP1 stable oncoprotein LMP1 integrated nasopharyngeal carcinoma cells. Kind of test: MTS cytotoxicity assay, CNE1-LMP1. The settings on record: Homo sapiens, MTS method, 72 h incubation. How it is done:
as §1, §2

Test [5] has as its system MCF-7 breast cancer cells. Kind of test: MTS cytotoxicity assay, MCF-7. The following applies: Homo sapiens, MCF7, MTS method, 72 h incubation. How it is done:
as §1, §2

As a reminder, the IC50 is the concentration that inhibits the measured activity by half. For `CC12COC(c3ccccc3)OC1CCC1(C)C2CCC2CC3CC21CCC3(O)CO` (stereo not drawn) [Compound 1, Inflatin G], the half-maximal inhibitory concentration (IC50) in test [1] amounted to 39.8 µM; in test [2], 42.6 µM; in test [3], 68.7 µM; in test [4], 35.4 µM; in test [5], 35.2 µM.

Regarding `C[C@@]1(CO)[C@H](O)CC[C@@]2(C)[C@H]1CC[C@H]1C[C@@H]3C[C@@]12CC[C@]3(O)CO` [Compound 4, aphidicolin], the IC50 in test [1] is 37.3 µM; in test [2], 10.4 µM; in test [3], 16.2 µM; in test [4] it was 3.12 µM; in test [5] it was 42.3 µM.

Consider `CC(=O)OC[C@@]1(O)CC[C@]23C[C@H]1C[C@@H]2CC[C@H]1[C@](C)(CO)[C@H](O)CC[C@@]13C` [Compound 5, aphidicolin-17-monoacetate], for which the IC50 in test [1] amounted to 40.5 µM; in test [2], 8 µM; in test [3] it was 5.2 µM; in test [4], 4 µM; in test [5] it was 66.2 µM.

Consider `COc1cc(=O)oc(C(C)[C@H](C)O)c1C` (stereo partly drawn) [Compound 6, gulypyrone A], for which the IC50 in test [1], in test [2], in test [3], in test [4] and in test [5] was over 100 µM each time.

For `C=C[C@H]1C[C@@H](C)C[C@@H](C)[C@@H]1c1c(O)ccn(O)c1=O` [Compound 7 and 8, pyridoxatin rotamers A (7) and B (8)], the IC50 in test [1] is 0.1 µM; in test [2] it was over 47.5 µM; in test [3] it was 0.44 µM; in test [4] it was 0.2 µM; in test [5] it was 0.17 µM.

`CC(=O)O[C@H]1C(=O)[C@@]2(C)[C@H]([C@H](OC(=O)c3ccccc3)[C@]3(O)C[C@H](OC(=O)[C@H](O)[C@@H](NC(=O)c4ccccc4)c4ccccc4)C(C)=C1C3(C)C)[C@]1(OC(C)=O)CO[C@@H]1C[C@@H]2O` [paclitaxel, reference compound]: the IC50 in test [1] was 0.0089 µM; in test [2], 0.024 µM; in test [3] it was 0.03 µM; in test [4], 0.0042 µM; in test [5] it was 0.014 µM.
